Source: patent publication US10544102B2, “Benzazepine dicarboxamide compounds with secondary amide function” (Hoffmann-La Roche Inc., priority 2017, dated 2020)

How the values were obtained:
human TLR7 = molecular target: T1, human TLR7 (Homo sapiens, UniProt Q9NYK1); test: HEK-Blue human TLR7 cells NF-κB SEAP reporter assay; format: cell-based; conditions: stimulation for 20 hours, Quanti Blue 640 nm
T1 construct: host or cells: HEK-Blue human TLR7 cells (HEK293-derived reporter line)
T1 sequence (Q9NYK1 27-1049): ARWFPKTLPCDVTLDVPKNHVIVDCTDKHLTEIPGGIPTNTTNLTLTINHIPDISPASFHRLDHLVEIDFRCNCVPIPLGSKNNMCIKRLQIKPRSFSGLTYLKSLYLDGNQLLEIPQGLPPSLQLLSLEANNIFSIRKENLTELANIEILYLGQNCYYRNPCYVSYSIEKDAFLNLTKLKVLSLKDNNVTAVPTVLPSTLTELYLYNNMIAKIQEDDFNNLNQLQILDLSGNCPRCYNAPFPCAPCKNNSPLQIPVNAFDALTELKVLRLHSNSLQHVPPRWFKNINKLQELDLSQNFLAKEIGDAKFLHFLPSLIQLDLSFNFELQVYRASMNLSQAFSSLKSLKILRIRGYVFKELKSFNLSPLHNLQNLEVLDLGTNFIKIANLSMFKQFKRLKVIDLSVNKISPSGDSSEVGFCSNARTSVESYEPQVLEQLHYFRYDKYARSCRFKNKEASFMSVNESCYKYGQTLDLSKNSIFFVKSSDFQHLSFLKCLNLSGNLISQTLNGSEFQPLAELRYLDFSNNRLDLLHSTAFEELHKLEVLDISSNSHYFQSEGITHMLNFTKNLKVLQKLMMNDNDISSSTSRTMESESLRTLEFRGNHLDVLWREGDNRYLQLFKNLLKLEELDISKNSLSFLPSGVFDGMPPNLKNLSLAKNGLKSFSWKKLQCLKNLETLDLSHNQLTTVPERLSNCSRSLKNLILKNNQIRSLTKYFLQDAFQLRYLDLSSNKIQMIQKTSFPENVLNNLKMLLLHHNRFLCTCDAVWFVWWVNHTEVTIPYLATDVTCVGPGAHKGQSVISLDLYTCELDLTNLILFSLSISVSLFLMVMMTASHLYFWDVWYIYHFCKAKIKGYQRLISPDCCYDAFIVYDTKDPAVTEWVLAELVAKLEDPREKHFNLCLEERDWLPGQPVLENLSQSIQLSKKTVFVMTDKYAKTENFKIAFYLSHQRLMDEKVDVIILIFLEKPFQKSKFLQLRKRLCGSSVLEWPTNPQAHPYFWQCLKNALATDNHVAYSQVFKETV
Description: (§1) For TLR8 and TLR7 activity testing, HEK-Blue human TLR8 or TLR7 cells (Invivogen, San Diego, Calif., USA) are used, respectively. These cells are designed for studying the stimulation of human TLR8 or TLR7 by monitoring the activation of NF-κB. A SEAP (secreted embryonic alkaline phosphatase) reporter gene is placed under the control of the IFN-b minimal promoter fused to five NF-κB and AP-1-binding sites. Therefore the reporter expression is regulated by the NF-κB promoter upon stimulation of human TLR8 or TLR7 for 20 hours. The cell culture supernatant SEAP reporter activity was determined using Quanti Blue kit (Invivogen, San Diego, Calif., USA) at a wavelength of 640 nm, a detection medium that turns purple/blue in the presence of alkaline phosphatase. EC50 values were determined using Activity Base analysis (ID Business Solution, Limited).

human TLR8 = molecular target: T2, human TLR8 (Homo sapiens, UniProt Q9NR97); test: HEK-Blue human TLR8 cells NF-κB SEAP reporter assay; format: cell-based; conditions: stimulation for 20 hours, Quanti Blue 640 nm
T2 construct: host or cells: HEK-Blue human TLR8 cells (HEK293-derived reporter line)
T2 sequence (Q9NR97 27-1041): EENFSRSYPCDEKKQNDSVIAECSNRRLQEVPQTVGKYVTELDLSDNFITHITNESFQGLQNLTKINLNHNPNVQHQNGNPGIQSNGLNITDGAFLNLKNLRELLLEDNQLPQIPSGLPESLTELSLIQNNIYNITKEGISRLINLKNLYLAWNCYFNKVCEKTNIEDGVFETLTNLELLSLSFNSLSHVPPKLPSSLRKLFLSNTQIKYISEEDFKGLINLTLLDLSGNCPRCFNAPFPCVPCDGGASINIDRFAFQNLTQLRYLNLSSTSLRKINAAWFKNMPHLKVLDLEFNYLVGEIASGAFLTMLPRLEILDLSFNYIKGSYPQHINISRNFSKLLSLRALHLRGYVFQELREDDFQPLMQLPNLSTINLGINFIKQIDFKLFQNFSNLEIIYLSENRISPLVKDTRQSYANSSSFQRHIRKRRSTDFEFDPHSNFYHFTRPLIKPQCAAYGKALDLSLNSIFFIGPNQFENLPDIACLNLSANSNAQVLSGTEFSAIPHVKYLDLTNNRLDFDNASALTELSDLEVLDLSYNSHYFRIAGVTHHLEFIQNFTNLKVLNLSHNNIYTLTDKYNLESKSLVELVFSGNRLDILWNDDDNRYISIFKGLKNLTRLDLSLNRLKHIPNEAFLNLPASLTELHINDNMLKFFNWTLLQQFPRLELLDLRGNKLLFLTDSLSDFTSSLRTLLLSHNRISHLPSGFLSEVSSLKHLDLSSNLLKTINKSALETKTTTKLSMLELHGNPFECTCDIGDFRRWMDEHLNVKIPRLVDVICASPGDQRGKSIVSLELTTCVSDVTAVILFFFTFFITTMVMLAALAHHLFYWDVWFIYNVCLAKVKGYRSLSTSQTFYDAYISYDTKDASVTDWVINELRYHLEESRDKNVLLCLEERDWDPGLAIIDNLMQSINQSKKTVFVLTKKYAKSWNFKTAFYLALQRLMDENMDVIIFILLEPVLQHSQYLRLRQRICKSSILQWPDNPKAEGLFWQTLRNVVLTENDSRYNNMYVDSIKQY
Description: as §1

EC50 (human TLR7) [nM] | EC50 (human TLR8) [nM] | SMILES
7900 | 2 | CCCN(CCC)C(=O)C1=Cc2ccc(C(=O)N[C@H]3C[C@@H]3c3ccccc3)cc2N=C(N)C1 [Example 1, 2-Amino-N8-[(1S,2R)-2-phenylcyclopropyl]-N4,N4-dipropyl-3H-1-benzazepine-4,8-dicarboxamide]
10000 | 2 | CCCN(CCC)C(=O)C1=Cc2ccc(C(=O)NC3CCN(c4ccccc4)CC3)cc2N=C(N)C1 [Example 2, 2-Amino-N8-(1-phenyl-4-piperidyl)-N4,N4-dipropyl-3H-1-benzazepine-4,8-dicarboxamide]
> 100000 | 4 | CCCN(CCC)C(=O)C1=Cc2ccc(C(=O)NC3CN(c4ccccc4)C3)cc2N=C(N)C1 [Example 3, 2-Amino-N8-(1-phenylazetidin-3-yl)-N4,N4-dipropyl-3H-1-benzazepine-4,8-dicarboxamide]
34000 | 4 | CCCN(CCC)C(=O)C1=Cc2ccc(C(=O)NC3CCCCC3)cc2N=C(N)C1 [Example 4, 2-Amino-N8-cyclohexyl-N4,N4-dipropyl-3H-1-benzazepine-4,8-dicarboxamide]
> 100000 | 6 | CCCN(CCC)C(=O)C1=Cc2ccc(C(=O)NC3(c4ccccc4)CC3)cc2N=C(N)C1 [Example 5, 2-Amino-N8-(1-phenylcyclopropyl)-N4,N4-dipropyl-3H-1-benzazepine-4,8-dicarboxamide]
13000 | 7 | CCCN(CCC)C(=O)C1=Cc2ccc(C(=O)NC3(c4ccccc4)CCC3)cc2N=C(N)C1 [Example 6, 2-Amino-N8-(1-phenylcyclobutyl)-N4,N4-dipropyl-3H-1-benzazepine-4,8-dicarboxamide]
17000 | 10 | CCCN(CCC)C(=O)C1=Cc2ccc(C(=O)N[C@@H](C)c3ccccc3)cc2N=C(N)C1 [Example 7, 2-Amino-N8-[(1S)-1-phenylethyl]-N4,N4-dipropyl-3H-1-benzazepine-4,8-dicarboxamide]
40000 | 12 | CCCN(CCC)C(=O)C1=Cc2ccc(C(=O)NCc3ccon3)cc2N=C(N)C1 [Example 8, 2-Amino-N8-(isoxazol-3-ylmethyl)-N4,N4-dipropyl-3H-1-benzazepine-4,8-dicarboxamide]
52000 | 24 | CCCN(CCC)C(=O)C1=Cc2ccc(C(=O)NCc3cncs3)cc2N=C(N)C1 [Example 9, 2-Amino-N4,N4-dipropyl-N8-(thiazol-5-ylmethyl)-3H-1-benzazepine-4,8-dicarboxamide]
> 100000 | 11 | CCCN(CCC)C(=O)C1=Cc2ccc(C(=O)NC(c3ccccc3)c3ccccc3)cc2N=C(N)C1 [Example 10, 2-Amino-N8-benzhydryl-N4,N4-dipropyl-3H-1-benzazepine-4,8-dicarboxamide]
> 100000 | 29 | CCCN(CCC)C(=O)C1=Cc2ccc(C(=O)NC3(c4ccccc4)CCOCC3)cc2N=C(N)C1 [Example 11, 2-Amino-N8-(4-phenyltetrahydropyran-4-yl)-N4,N4-dipropyl-3H-1-benzazepine-4,8-dicarboxamide]
42000 | 13 | CCCN(CCC)C(=O)C1=Cc2ccc(C(=O)NCc3nccs3)cc2N=C(N)C1 [Example 12, 2-Amino-N4,N4-dipropyl-N8-(thiazol-2-ylmethyl)-3H-1-benzazepine-4,8-dicarboxamide]
14000 | 11 | CCCN(CCC)C(=O)C1=Cc2ccc(C(=O)NC(C)(C)c3ccccc3)cc2N=C(N)C1 [Example 13, 2-Amino-N8-(1-methyl-1-phenyl-ethyl)-N4,N4-dipropyl-3H-1-benzazepine-4,8-dicarboxamide]
35000 | 12 | CCCN(CCC)C(=O)C1=Cc2ccc(C(=O)N[C@H](C)c3ccccc3)cc2N=C(N)C1 [Example 14, 2-Amino-N8-[(1R)-1-phenylethyl]-N4,N4-dipropyl-3H-1-benzazepine-4,8-dicarboxamide]
> 100000 | 14 | CCCN(CCC)C(=O)C1=Cc2ccc(C(=O)NC3CCCC3)cc2N=C(N)C1 [Example 15, 2-Amino-N8-cyclopentyl-N4,N4-dipropyl-3H-1-benzazepine-4,8-dicarboxamide]
50000 | 28 | CCCN(CCC)C(=O)C1=Cc2ccc(C(=O)NC(C)(C)C)cc2N=C(N)C1 [Example 16, 2-Amino-N8-tert-butyl-N4,N4-dipropyl-3H-1-benzazepine-4,8-dicarboxamide]
> 100000 | 25 | CCCN(CCC)C(=O)C1=Cc2ccc(C(=O)NC3CCC3)cc2N=C(N)C1 [Example 17, 2-Amino-N8-cyclobutyl-N4,N4-dipropyl-3H-1-benzazepine-4,8-dicarboxamide]
25000 | 26 | CCCN(CCC)C(=O)C1=Cc2ccc(C(=O)NCc3ccccc3)cc2N=C(N)C1 [Example 18, 2-Amino-N8-benzyl-N4,N4-dipropyl-3H-1-benzazepine-4,8-dicarboxamide]
49000 | 25 | CCCN(CCC)C(=O)C1=Cc2ccc(C(=O)NCc3cccnc3)cc2N=C(N)C1 [Example 19, 2-Amino-N4,N4-dipropyl-N8-(3-pyridylmethyl)-3H-1-benzazepine-4,8-dicarboxamide]
> 100000 | 30 | CCCN(CCC)C(=O)C1=Cc2ccc(C(=O)NCCc3cccnc3)cc2N=C(N)C1 [Example 20, 2-Amino-N4,N4-dipropyl-N8-[2-(3-pyridyl)ethyl]-3H-1-benzazepine-4,8-dicarboxamide]
> 100000 | 29 | CCCN(CCC)C(=O)C1=Cc2ccc(C(=O)NCCCc3cccnc3)cc2N=C(N)C1 [Example 21, 2-Amino-N4,N4-dipropyl-N8-[3-(3-pyridyl)propyl]-3H-1-benzazepine-4,8-dicarboxamide]
14000 | 5 | CCCN(CC1CC1)C(=O)C1=Cc2ccc(C(=O)NC3C[C@H]3c3ccccc3)cc2N=C(N)C1 (stereo partly drawn) [Example 22, 2-Amino-N4-(cyclopropylmethyl)-N8-[(2S)-2-phenylcyclopropyl]-N4-propyl-3H-1-benzazepine-4,8-dicarboxamide]
> 100000 | 10 | CCCN(CCC)C(=O)C1=Cc2ccc(C(=O)NC3CCCN(c4ccccc4)C3)cc2N=C(N)C1 (stereo not shown) [Example 23, 2-Amino-N8-(1-phenyl-3-piperidyl)-N4,N4-dipropyl-3H-1-benzazepine-4,8-dicarboxamide]
